Source: PubChem BioAssay (NCI)
Values joined by “and” are separate entries in the source; they are usually repeats but may differ in a detail not shown here. Equal entries are not always repeated.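 Compound exposure: 48 hours, 5 concentrations, 96-well plates. GI50 is the concentration that inhibits growth by half. TGI marks complete inhibition of growth.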

What was measured:
Assay in all cases: inhibition of tumour cell growth, NCI panel, 48 h
[1] = tested on: CAKI-1 renal
[2] = tested on: MDA-MB-231 breast
[3] = tested on: SF-539 CNS
[4] = tested on: SF-295 CNS
[5] = tested on: M14 melanoma
[6] = tested on: U251 CNS
[7] = tested on: RPMI-8226 leukemia
[8] = tested on: OVCAR-8 ovarian
[9] = tested on: HCT-15 colon
[10] = tested on: SNB-19 CNS
[11] = tested on: OVCAR-5 ovarian
[12] = tested on: IGROV1 ovarian
[13] = tested on: RXF 393 renal
[14] = tested on: HCT-116 colon
[15] = tested on: NCI-H226 lung
[16] = tested on: SK-MEL-28 melanoma
[17] = tested on: NCI-H23 lung
[18] = tested on: MDA-MB-435
[19] = tested on: SK-MEL-2 melanoma
[20] = tested on: HL-60(TB) leukemia
[21] = tested on: DU-145 prostate
[22] = tested on: EKVX NSCLC
[23] = tested on: SF-268 CNS
[24] = tested on: T-47D breast
[25] = tested on: HOP-62 NSCLC
[26] = tested on: OVCAR-3 ovarian
[27] = tested on: NCI-H460 lung
[28] = tested on: NCI-H522 lung
[29] = tested on: HOP-92 NSCLC
[30] = tested on: MALME-3M melanoma
[31] = tested on: MDA-N
[32] = tested on: HS 578T breast
[33] = tested on: HCC-2998 colon
[34] = tested on: MCF7 breast
[35] = tested on: KM12 colon
[36] = tested on: CCRF-CEM leukemia
[37] = tested on: ACHN renal
[38] = tested on: LOX IMVI melanoma
[39] = tested on: SR leukemia
[40] = tested on: BT-549 breast
[41] = tested on: OVCAR-4 ovarian
[42] = tested on: PC-3 prostate
[43] = tested on: K-562 leukemia
[44] = tested on: UO-31 renal
[45] = tested on: MOLT-4 leukemia
[46] = tested on: UACC-257 melanoma
[47] = tested on: 786-0 renal
[48] = tested on: SK-MEL-5 melanoma
[49] = tested on: A549 NSCLC
[50] = tested on: SW-620 colon
[51] = tested on: COLO 205 colon
[52] = tested on: SK-OV-3 ovarian
[53] = tested on: SN12C renal
[54] = tested on: HT29 colon
[55] = tested on: UACC-62 melanoma
[56] = tested on: TK-10 renal
[57] = tested on: A498 renal
[58] = tested on: SNB-75 CNS
[59] = tested on: NCI/ADR-RES ovarian

O=c1cc(N2CCOCC2)oc2c(-c3ccccc3)cccc12
TGI [1]: 28.9 µM and 9.16 µM | GI50 [2]: 5.85 µM | TGI [2]: 97.3 µM and 19.6 µM | GI50 [3]: 5.57 µM | TGI [3]: 31.6 µM and 29.8 µM | GI50 [4]: 2.61 µM | TGI [4]: 27.8 µM and 44.7 µM | GI50 [5]: 5.38 µM | TGI [5]: > 38.5 µM and 56 µM | GI50 [6]: 11.1 µM | TGI [6]: > 100 µM | GI50 [7]: 5.1 µM | TGI [7]: > 100 µM and 18.3 µM | TGI [8]: > 80.1 µM and 29.1 µM | GI50 [9]: 4.98 µM | TGI [9]: > 100 µM and 48.7 µM | TGI [10]: > 96.2 µM and 78.6 µM | GI50 [11]: 5.17 µM | TGI [11]: > 100 µM and 63.8 µM | GI50 [12]: 3.65 µM | TGI [12]: > 34.4 µM and 12.3 µM | TGI [13]: 13.4 µM and 13.6 µM | GI50 [14]: 9.87 µM | TGI [14]: > 100 µM and 46.1 µM | TGI [15]: 50 µM and 50.6 µM | GI50 [16]: 6.57 µM | TGI [16]: > 100 µM | GI50 [17]: 9.08 µM | TGI [17]: > 100 µM | GI50 [18]: 4.23 µM | TGI [18]: 31.1 µM and 37.2 µM | GI50 [19]: 12.1 µM | TGI [19]: 38 µM and 36.9 µM | GI50 [20]: 3.38 µM | TGI [20]: 38.2 µM and > 100 µM | GI50 [21]: 6.73 µM | TGI [21]: > 100 µM | GI50 [22]: 5.22 µM | TGI [22]: > 71 µM and 23.2 µM | GI50 [23]: 3.59 µM | TGI [23]: 53 µM and 14.2 µM | GI50 [24]: 3.03 µM | TGI [24]: 48.7 µM and 8.31 µM | GI50 [25]: 5.41 µM | TGI [25]: > 100 µM | GI50 [26]: 4.48 µM | TGI [26]: 40.3 µM and 43 µM | GI50 [27]: 6.13 µM | TGI [27]: > 100 µM | GI50 [28]: 4.96 µM | TGI [28]: 23.2 µM and 19.3 µM | GI50 [29]: 3.74 µM | TGI [29]: > 100 µM and 78.5 µM | GI50 [30]: 4.46 µM | TGI [30]: > 41.4 µM and 5.6 µM | TGI [31]: 50.3 µM | GI50 [32]: 3.16 µM | TGI [32]: > 30.6 µM and 11.4 µM | GI50 [33]: 5.61 µM | TGI [33]: 46.9 µM | TGI [34]: > 57 µM and 16.1 µM | GI50 [35]: 10.6 µM | TGI [35]: 44.9 µM and 28.8 µM | GI50 [36]: 8.59 µM | TGI [36]: > 100 µM | GI50 [37]: 4.25 µM | TGI [37]: > 100 µM | GI50 [38]: 4.34 µM | TGI [38]: > 68.3 µM and 18.4 µM | TGI [39]: > 60 µM and 46.6 µM | GI50 [40]: 1.79 µM | TGI [40]: > 19.8 µM and 76.2 µM | GI50 [41]: 3.5 µM | TGI [41]: > 61.9 µM and 75.5 µM | GI50 [42]: 2.96 µM | TGI [42]: > 100 µM | TGI [43]: > 100 µM and 79.7 µM | GI50 [44]: 1.39 µM | GI50 [45]: 5.46 µM | TGI [45]: > 100 µM and 92.8 µM | GI50 [46]: 9.06 µM | TGI [46]: 69.2 µM and 60.8 µM | GI50 [47]: 3.13 µM | TGI [47]: > 37.9 µM and 46.7 µM | GI50 [48]: 9.35 µM | TGI [48]: 22 µM | GI50 [49]: 6 µM | TGI [49]: > 72.8 µM and 36.7 µM | GI50 [50]: 15.5 µM | TGI [50]: > 100 µM | TGI [51]: 36.7 µM and 30.1 µM | GI50 [52]: 6.92 µM | TGI [52]: 62.4 µM and 60.9 µM | GI50 [53]: 2.93 µM | TGI [53]: > 100 µM | GI50 [54]: 5.27 µM | TGI [54]: 70.6 µM and 43.8 µM | GI50 [55]: 3.19 µM | TGI [55]: 18.8 µM and 21.9 µM | GI50 [56]: 4.39 µM | TGI [56]: 40.3 µM and > 100 µM | GI50 [57]: 1.53 µM | TGI [57]: 7.54 µM and 13.9 µM | GI50 [58]: 1.91 µM | TGI [58]: 14.6 µM and 5.97 µM | GI50 [59]: 6.35 µM | TGI [59]: 85.2 µM and 24.3 µM

CO/C=C(/C(=O)OC)c1ccccc1[C@H]1C[C@@H]1c1ccc(OC)cc1
TGI [1]: 57.4 µM | TGI [2]: 94.2 µM | TGI [3]: 38 µM | TGI [4]: 46.3 µM | TGI [5]: 51.6 µM | TGI [6]: > 100 µM | TGI [7]: 58.5 µM | TGI [8]: > 100 µM | TGI [9]: 66.1 µM | TGI [10]: > 100 µM | TGI [11]: > 100 µM | TGI [12]: 45.5 µM | TGI [13]: > 100 µM | TGI [14]: 44.5 µM | TGI [15]: > 100 µM | TGI [16]: 52.2 µM | TGI [17]: > 100 µM | TGI [18]: 27.8 µM | TGI [19]: 32.1 µM | TGI [20]: 62.4 µM | TGI [21]: > 100 µM | TGI [22]: 50.2 µM | TGI [23]: 86.3 µM | TGI [24]: 56.7 µM | TGI [25]: 98 µM | TGI [26]: 49 µM | TGI [27]: 83 µM | TGI [28]: 25.5 µM | TGI [29]: > 100 µM | TGI [30]: 46.8 µM | TGI [31]: 56.7 µM | TGI [32]: 84.5 µM | TGI [33]: 42.7 µM | TGI [34]: > 100 µM | TGI [35]: 68.8 µM | TGI [36]: > 100 µM | TGI [37]: 74.2 µM | TGI [39]: 45.4 µM | TGI [40]: 46.6 µM | TGI [41]: 45 µM | TGI [42]: > 100 µM | TGI [43]: > 100 µM | TGI [44]: > 100 µM | TGI [45]: 74.5 µM | TGI [46]: 72.8 µM | TGI [47]: > 100 µM | TGI [48]: 26.2 µM | TGI [49]: 65.6 µM | TGI [51]: 25.8 µM | TGI [52]: 60.7 µM | TGI [53]: > 100 µM | TGI [54]: 38.7 µM | TGI [55]: 64.7 µM | TGI [56]: > 100 µM | TGI [57]: > 100 µM | TGI [59]: 52.6 µM

CC1CN=C(c2ccc3c(c2)Cc2cc(C4=NCC(C)N4)ccc2-3)N1 (stereo not given)
TGI [1]: > 100 µM | TGI [2]: > 100 µM | TGI [4]: > 100 µM | TGI [5]: > 100 µM | TGI [6]: 46.7 µM | TGI [7]: 98.7 µM | TGI [8]: > 100 µM | TGI [9]: > 100 µM | TGI [10]: > 100 µM | TGI [11]: > 100 µM | TGI [12]: > 100 µM | TGI [13]: > 100 µM | TGI [14]: > 100 µM | TGI [15]: > 100 µM | TGI [16]: > 100 µM | TGI [17]: > 100 µM | TGI [18]: 63.9 µM | TGI [19]: 44.8 µM | TGI [21]: > 100 µM | TGI [22]: > 100 µM | TGI [23]: 77.7 µM | TGI [24]: > 100 µM | TGI [25]: > 100 µM | TGI [26]: 53.7 µM | TGI [27]: 86.8 µM | TGI [28]: 57.4 µM | TGI [29]: > 100 µM | TGI [30]: 46 µM | TGI [31]: > 100 µM | TGI [32]: > 100 µM | TGI [33]: 39.2 µM | TGI [34]: 65.3 µM | TGI [35]: 56 µM | TGI [36]: > 100 µM | TGI [37]: > 100 µM | TGI [38]: > 100 µM | TGI [39]: > 100 µM | TGI [40]: > 100 µM | TGI [41]: 48.6 µM | TGI [42]: > 100 µM | TGI [43]: > 100 µM | TGI [44]: > 100 µM | TGI [45]: > 100 µM | TGI [46]: > 100 µM | TGI [47]: > 100 µM | TGI [48]: > 100 µM | TGI [49]: > 100 µM | TGI [50]: > 100 µM | TGI [51]: > 100 µM | TGI [52]: > 100 µM | TGI [53]: > 100 µM | TGI [54]: > 100 µM | TGI [55]: 99 µM | TGI [56]: > 100 µM | TGI [57]: > 100 µM | TGI [58]: > 100 µM | TGI [59]: > 100 µM
